Laboratory results taken from article PMC10322702 (Nature Chemistry, 2023).
Where “and” joins values, the source holds several entries; their conditions need not be identical. Equal entries are not always repeated. Numbered stars: 1 amine (or outer) side, 2 acyl side, 3 side chain; on linkers, the order of the positions; unused ones are H or OH. Bridge positions count the residues as written; N and C are the ends. Square brackets hold non-standard residues; d marks the D form. Peptide text beside a SMILES is read from it. Acbc(cis-1,3) = O=C([C@H]1C[C@@H](N[*:1])C1)[*:2]; X1 = O=C([C@@H]1CC[C@H](N[*:1])C1)[*:2]

How the values were obtained:
SARS-CoV-2 M^pro [1] = target: T1, SARS-CoV-2 M^pro (Severe acute respiratory syndrome coronavirus 2, UniProt P0DTD1); assay: biochemical; type: binding; details: for kon: read-out: ka (kinetic association)
SARS-CoV-2 M^pro [2] = target: T1, SARS-CoV-2 M^pro; assay: biochemical; type: biochemical
[3] = Serum stability assay in human serum (LC/MS)
[4] = 37 °C, incubation time 1 h, relative to 0 h = 100%, technical replicates, 60 min
[5] = 37 °C, incubation time 2 h, relative to 0 h = 100%, technical replicates, 120 min
[6] = 37 °C, incubation time 4 h, relative to 0 h = 100%, technical replicates, 240 min
[7] = 37 °C, incubation time 8 h, relative to 0 h = 100%, technical replicates, 480 min
[8] = human, Remaining peptide (%), 37 °C, incubation time 1 h, relative to 0 h = 100%, technical replicates
[9] = human, Remaining peptide (%), 37 °C, incubation time 2 h, relative to 0 h = 100%, technical replicates
[10] = human, Remaining peptide (%), 37 °C, incubation time 4 h, relative to 0 h = 100%, technical replicates
[11] = human, Remaining peptide (%), 37 °C, incubation time 8 h, relative to 0 h = 100%, technical replicates
[12] = human, Remaining peptide (%), 37 °C, incubation time 24 h, relative to 0 h = 100%, technical replicates
[13] = 37 °C, incubation time 24 h, relative to 0 h = 100%, technical replicates, 1440 min
[14] = 37 °C, incubation time 50 h, relative to 0 h = 100%, technical replicates, 3000 min
[15] = human, Remaining peptide (%), 37 °C, incubation time 50 h, relative to 0 h = 100%, technical replicates

Row | SMILES | Kd (SARS-CoV-2 M^pro [1]) | kd (kinetic dissociation) (SARS-CoV-2 M^pro [1]) | kon (SARS-CoV-2 M^pro [1]) | IC50 (SARS-CoV-2 M^pro [2]) | Remaining peptide (%) [3, 4] | Remaining peptide (%) [3, 6] | Remaining peptide (%) [3, 7] | half-life at 10 μM ([3]; human) | remaining at 1 h, 10 μM [3, 8] | remaining at 4 h, 10 μM [3, 10] | remaining at 8 h, 10 μM [3, 11] | remaining at 24 h, 10 μM [3, 12] | inhibition of M^pro (in words) (SARS-CoV-2 M^pro [2]) | inhibition at 16.6 µM (SARS-CoV-2 M^pro [2]) | inhibition at 50.1 µM (SARS-CoV-2 M^pro [2]) | further results
1 | CC(C)C[C@@H]1NC(=O)[C@@H](Cc2ccc(O)cc2)NC(=O)CSC[C@H](C(N)=O)NC(=O)[C@H](C)NC(=O)[C@H](C)NC(=O)[C@H](Cc2ccc(O)cc2)NC(=O)[C@H](CCCNC(=N)N)NC(=O)[C@H](Cc2ccc(O)cc2)NC(=O)[C@@H]2CC[C@@H](C2)NC(=O)[C@H](CO)NC(=O)[C@H](Cc2ccc(O)cc2)NC(=O)[C@H]([C@@H](C)O)NC(=O)[C@H](CO)NC(=O)[C@H](C)NC(=O)[C@H](Cc2ccc(O)cc2)NC(=O)[C@H](Cc2c[nH]cn2)NC1=O [GM3] ({CH2CO}-[dY]LHYASTYS[X1]YRYAA[dC]-NH2; thioether N-16) | 0.062 µM | 13 10^-3 s^-1 | 200000 M⁻¹ s⁻¹ | 2.06 µM | 71.95% and 68.98% | 43.40% and 39.26% | 15.43% and 15.99% | 2.5 h | 60.8% | 45.6% | 15.7% | 0% | – | – | – | inhibition at 2.75 µM (SARS-CoV-2 M^pro [2]): 66.3%; Remaining peptide (%) ([3]; 37 °C, incubation time 0.5 h, relative to 0 h = 100%, technical replicates, 30 min): 72.71% and 73.43%; Remaining peptide (%) [3, 5]: 55.38% and 55.49%; remaining at 0.5 h, 10 μM ([3]; human, Remaining peptide (%), 37 °C, incubation time 0.5 h, relative to 0 h = 100%, technical replicates): 67.7%; remaining at 2 h, 10 μM [3, 9]: 48.5%
2 | CC(C)C[C@@H]1NC(=O)[C@H]([C@@H](C)O)NC(=O)[C@H](Cc2ccc(O)cc2)NC(=O)[C@H]([C@@H](C)O)NC(=O)[C@H](Cc2c[nH]cn2)NC(=O)[C@@H]2CCCN2C(=O)[C@@H]2CCCN2C(=O)[C@H](Cc2ccccc2)NC(=O)[C@H](C)NC(=O)[C@H](Cc2c[nH]cn2)NC(=O)[C@H](Cc2ccccc2)NC(=O)[C@@H](Cc2ccc(O)cc2)NC(=O)CSC[C@H](C(N)=O)NC1=O [GM1γ^14A] ({CH2CO}-[dY]FHAFPPHTYTL[dC]-NH2; thioether N-13) | 0.01 µM | 3.2 10^-3 s^-1 | 320000 M⁻¹ s⁻¹ | > 5 µM | 87.05% and 85.28% | 65.45% and 64.12% | 51.43% and 52.89% | 8.3 h | 84.3% | 63.2% | 56.1% | 26.4% | inhibition was ablated | – | – | fold change in binding affinity relative to the original peptide (SARS-CoV-2 M^pro [1]): fourfold weaker; Remaining peptide (%) [3, 5]: 71.54% and 71.96%; Remaining peptide (%) [3, 13]: 25.58% and 25.19%; Remaining peptide (%) [3, 14]: 4.30% and 4.38%; remaining at 2 h, 10 μM [3, 9]: 70.6%; remaining at 50 h, 10 μM [3, 15]: 4.46%
3 | CC(C)C[C@@H]1NC(=O)[C@H](CC(N)=O)NC(=O)[C@H](CC(C)C)NC(=O)[C@H]2C[C@H](C2)NC(=O)[C@H](CCC(=O)O)NC(=O)[C@H](Cc2ccccc2)NC(=O)[C@@H](Cc2ccc(O)cc2)NC(=O)CSC[C@H](C(N)=O)NC(=O)CNC(=O)[C@@H]2CCCN2C(=O)[C@H](CCCNC(=N)N)NC(=O)[C@H](Cc2ccc(O)cc2)NC(=O)CNC1=O [GM4H3E] ({CH2CO}-[dY]FE[Acbc(cis-1,3)]LNLGYRPG[dC]-NH2; thioether N-13) | 0.36 µM | 7.1 10^-3 s^-1 | 20000 M⁻¹ s⁻¹ | > 25 µM | – | – | – | – | – | – | – | – | observed only with the highest tested concentration (25 µM) | – | – | –
4 | CC(C)C[C@@H]1NC(=O)[C@H](CC(N)=O)NC(=O)[C@H](CC(C)C)NC(=O)[C@H]2C[C@H](C2)NC(=O)[C@H](C)NC(=O)[C@H](Cc2ccccc2)NC(=O)[C@@H](Cc2ccc(O)cc2)NC(=O)CSC[C@H](C(N)=O)NC(=O)CNC(=O)[C@@H]2CCCN2C(=O)[C@H](CCCNC(=N)N)NC(=O)[C@H](Cc2ccc(O)cc2)NC(=O)CNC1=O [GM4H3A] ({CH2CO}-[dY]FA[Acbc(cis-1,3)]LNLGYRPG[dC]-NH2; thioether N-13) | > 10 µM | – | – | > 25 µM | – | – | – | – | – | – | – | – | no inhibition | – | – | –
5 | CC[C@H](C)[C@@H]1NC(=O)[C@H](Cc2ccc(O)cc2)NC(=O)[C@H](CC(C)C)NC(=O)[C@H](CC(=O)O)NC(=O)[C@H](CCCNC(=N)N)NC(=O)[C@H](Cc2ccccc2)NC(=O)[C@@H]2CC[C@@H](C2)NC(=O)[C@H](Cc2c[nH]cn2)NC(=O)[C@H](Cc2ccccc2)NC(=O)[C@@H](Cc2ccc(O)cc2)NC(=O)CSC[C@H](C(N)=O)NC(=O)CNC(=O)[C@H](CC(C)C)NC1=O [GM5] ({CH2CO}-[dY]FH[X1]FRDLYILG[dC]-NH2; thioether N-13) | 0.0052 µM | 1.2 10^-3 s^-1 | 240000 M⁻¹ s⁻¹ | 0.04 µM | 101.31% and 104.14% | 77.04% and 80.18% | 83.97% and 82.30% | 32 h | 101% | 78.7% | 83% | 58.4% | – | 100% | 100% | inhibition at 1.86 µM (SARS-CoV-2 M^pro [2]): 100%; inhibition at 5.62 µM (SARS-CoV-2 M^pro [2]): 100%; inhibition at […] (SARS-CoV-2 M^pro [2]): 100%; Remaining peptide (%) [3, 13]: 66.27% and 59.32%; Remaining peptide (%) [3, 14]: 29.51% and 26.23%; Remaining peptide (%) ([3]; 37 °C, incubation time 100 h, relative to 0 h = 100%, technical replicates, 6000 min): 20.75% and 19.44%; remaining at 50 h, 10 μM [3, 15]: 30.7%; remaining at 100 h, 10 μM ([3]; human, Remaining peptide (%), 37 °C, incubation time 100 h, relative to 0 h = 100%, technical replicates): 19.9%
6 | CC[C@H](C)[C@@H]1NC(=O)[C@H](Cc2ccc(O)cc2)NC(=O)[C@H]([C@@H](C)O)NC(=O)[C@H](C)NC(=O)[C@@H]2CC[C@@H](C2)NC(=O)[C@H](CO)NC(=O)[C@H]([C@@H](C)O)NC(=O)[C@H](Cc2ccc(O)cc2)NC(=O)[C@H](Cc2ccccc2)NC(=O)[C@H](Cc2c[nH]cn2)NC(=O)[C@H](CC(C)C)NC(=O)[C@@H](Cc2ccc(O)cc2)NC(=O)CSC[C@H](C(N)=O)NC(=O)[C@@H]2CCCN2C(=O)[C@H](Cc2ccc(O)cc2)NC1=O [GM7, ^AcyLHFYTSγ^2ATYIYPc-NH2] ({CH2CO}-[dY]LHFYTS[X1]ATYIYP[dC]-NH2; thioether N-15) | 0.49 µM | 23 10^-3 s^-1 | 48000 M⁻¹ s⁻¹ | 7.93 µM | – | – | – | – | – | – | – | – | – | – | – | inhibition at 25.1 µM (SARS-CoV-2 M^pro [2]): 96%
7 | CC(C)C[C@@H]1NC(=O)[C@H](CC(N)=O)NC(=O)[C@H](CC(C)C)NC(=O)[C@H](CC(N)=O)NC(=O)[C@H](Cc2c[nH]cn2)NC(=O)[C@H](Cc2ccccc2)NC(=O)[C@@H](Cc2ccc(O)cc2)NC(=O)CSC[C@H](C(N)=O)NC(=O)CNC(=O)[C@@H]2CCCN2C(=O)[C@H](CCCNC(=N)N)NC(=O)[C@H](Cc2ccc(O)cc2)NC(=O)CNC1=O [GM4γ^14N] ({CH2CO}-[dY]FHNLNLGYRPG[dC]-NH2; thioether N-13) | 0.48 µM | 9.5 10^-3 s^-1 | 20000 M⁻¹ s⁻¹ | 1 µM | – | – | – | – | – | – | – | – | – | 100% | 100% | fold less active than GM4 (M^pro inhibition) (SARS-CoV-2 M^pro [2]): 20 fold
8 | CC[C@H](C)[C@@H]1NC(=O)[C@H](Cc2ccccc2)NC(=O)[C@@H](Cc2ccc(O)cc2)NC(=O)CSC[C@H](C(N)=O)NC(=O)[C@H]([C@@H](C)CC)NC(=O)[C@@H]2CCCN2C(=O)[C@H](CC(C)C)NC(=O)[C@H]2C[C@H](C2)NC(=O)[C@H](Cc2c[nH]cn2)NC(=O)[C@@H]2CCCN2C(=O)[C@H](CC(=O)O)NC(=O)[C@H](Cc2c[nH]cn2)NC(=O)[C@H](Cc2ccccc2)NC(=O)[C@H]([C@@H](C)CC)NC(=O)[C@H]([C@@H](C)O)NC(=O)[C@H](Cc2c[nH]cn2)NC1=O [GM6] ({CH2CO}-[dY]FIHTIFHDPH[Acbc(cis-1,3)]LPI[dC]-NH2; thioether N-16) | 0.082 µM | 6.4 10^-3 s^-1 | 78000 M⁻¹ s⁻¹ | 2.28 µM | – | – | – | – | – | – | – | – | – | 100% | 100% | inhibition at 5.5 µM (SARS-CoV-2 M^pro [2]): 90.2%
